Experimental data as given in ChEMBL document CHEMBL1136068 (Bioorg Med Chem Lett, 2003).
Activity calls are given as the source filed them. The rule behind the calls is not given here.

Tests used:
[1] = target: T1, Androgen receptor (Homo sapiens, UniProt P10275); assay: Antagonist activity against human Androgen receptor; format: functional
T1 sequence (P10275 whole entry): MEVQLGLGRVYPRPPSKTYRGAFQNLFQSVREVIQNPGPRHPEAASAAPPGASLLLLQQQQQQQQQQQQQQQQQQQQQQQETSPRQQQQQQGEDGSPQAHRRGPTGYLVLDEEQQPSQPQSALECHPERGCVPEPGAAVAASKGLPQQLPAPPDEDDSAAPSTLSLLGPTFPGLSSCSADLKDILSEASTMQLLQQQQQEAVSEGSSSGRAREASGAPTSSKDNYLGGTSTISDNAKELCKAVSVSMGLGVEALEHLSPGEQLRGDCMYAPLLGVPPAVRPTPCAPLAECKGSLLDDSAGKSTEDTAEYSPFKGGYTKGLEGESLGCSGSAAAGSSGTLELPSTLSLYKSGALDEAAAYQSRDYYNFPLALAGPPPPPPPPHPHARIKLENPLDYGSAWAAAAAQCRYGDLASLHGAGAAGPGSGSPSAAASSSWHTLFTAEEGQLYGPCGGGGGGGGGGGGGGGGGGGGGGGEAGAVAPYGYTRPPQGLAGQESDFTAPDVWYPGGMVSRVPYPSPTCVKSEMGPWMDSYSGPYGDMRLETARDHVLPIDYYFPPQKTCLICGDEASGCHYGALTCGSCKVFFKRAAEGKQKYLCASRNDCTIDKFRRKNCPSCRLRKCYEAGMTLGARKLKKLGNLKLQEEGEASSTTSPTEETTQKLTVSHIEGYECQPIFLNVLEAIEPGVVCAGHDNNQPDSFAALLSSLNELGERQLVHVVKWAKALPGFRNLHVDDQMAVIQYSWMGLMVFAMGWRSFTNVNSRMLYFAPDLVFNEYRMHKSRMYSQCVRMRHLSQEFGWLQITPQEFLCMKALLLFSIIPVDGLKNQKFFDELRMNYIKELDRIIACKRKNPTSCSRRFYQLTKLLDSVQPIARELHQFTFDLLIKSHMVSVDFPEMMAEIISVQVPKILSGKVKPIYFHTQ

[2] = target: Estrogen receptor (Homo sapiens, UniProt Q92731+P03372); assay: Antagonist efficacy with Estrogen receptor; Efficacy <20% and/or potency >[…] nM; format: functional
[3] = target: T2, Mineralocorticoid receptor (Homo sapiens) (UniProt P08235); assay: Antagonist efficacy at mineralocorticoid receptor (hMR); Efficacy <20% and/or potency >[…] nM; format: functional
T2 sequence (whole entry): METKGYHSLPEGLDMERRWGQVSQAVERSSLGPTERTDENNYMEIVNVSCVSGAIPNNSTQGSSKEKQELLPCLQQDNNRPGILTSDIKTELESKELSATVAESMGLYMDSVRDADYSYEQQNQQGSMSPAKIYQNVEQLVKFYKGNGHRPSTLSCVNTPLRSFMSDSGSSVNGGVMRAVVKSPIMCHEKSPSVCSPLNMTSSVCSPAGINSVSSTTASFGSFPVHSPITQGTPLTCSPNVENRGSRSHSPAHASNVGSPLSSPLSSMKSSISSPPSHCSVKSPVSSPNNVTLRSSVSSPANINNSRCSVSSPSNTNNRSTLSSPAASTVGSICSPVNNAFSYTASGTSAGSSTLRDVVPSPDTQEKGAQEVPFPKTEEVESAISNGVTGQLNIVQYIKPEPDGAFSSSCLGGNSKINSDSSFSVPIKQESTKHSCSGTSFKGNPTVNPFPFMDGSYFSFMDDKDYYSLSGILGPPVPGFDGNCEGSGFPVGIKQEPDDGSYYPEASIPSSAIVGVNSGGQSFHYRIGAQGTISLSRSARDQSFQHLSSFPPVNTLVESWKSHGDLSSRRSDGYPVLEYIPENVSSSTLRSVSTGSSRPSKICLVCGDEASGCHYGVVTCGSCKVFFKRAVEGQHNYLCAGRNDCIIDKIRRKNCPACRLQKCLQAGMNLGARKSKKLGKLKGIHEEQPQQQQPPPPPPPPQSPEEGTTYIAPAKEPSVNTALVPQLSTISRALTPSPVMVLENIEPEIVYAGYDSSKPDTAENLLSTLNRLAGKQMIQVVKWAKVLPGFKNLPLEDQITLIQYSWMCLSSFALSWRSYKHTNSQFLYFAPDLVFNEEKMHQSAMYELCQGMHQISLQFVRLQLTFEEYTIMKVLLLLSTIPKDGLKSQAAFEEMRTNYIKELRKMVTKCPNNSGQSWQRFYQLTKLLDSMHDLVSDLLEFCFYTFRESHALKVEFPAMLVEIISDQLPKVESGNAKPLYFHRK

[4] = target: T3, Progesterone receptor (Homo sapiens, UniProt P06401); assay: Binding affinity for human progesterone receptor; […]
T3 sequence (P06401 whole entry): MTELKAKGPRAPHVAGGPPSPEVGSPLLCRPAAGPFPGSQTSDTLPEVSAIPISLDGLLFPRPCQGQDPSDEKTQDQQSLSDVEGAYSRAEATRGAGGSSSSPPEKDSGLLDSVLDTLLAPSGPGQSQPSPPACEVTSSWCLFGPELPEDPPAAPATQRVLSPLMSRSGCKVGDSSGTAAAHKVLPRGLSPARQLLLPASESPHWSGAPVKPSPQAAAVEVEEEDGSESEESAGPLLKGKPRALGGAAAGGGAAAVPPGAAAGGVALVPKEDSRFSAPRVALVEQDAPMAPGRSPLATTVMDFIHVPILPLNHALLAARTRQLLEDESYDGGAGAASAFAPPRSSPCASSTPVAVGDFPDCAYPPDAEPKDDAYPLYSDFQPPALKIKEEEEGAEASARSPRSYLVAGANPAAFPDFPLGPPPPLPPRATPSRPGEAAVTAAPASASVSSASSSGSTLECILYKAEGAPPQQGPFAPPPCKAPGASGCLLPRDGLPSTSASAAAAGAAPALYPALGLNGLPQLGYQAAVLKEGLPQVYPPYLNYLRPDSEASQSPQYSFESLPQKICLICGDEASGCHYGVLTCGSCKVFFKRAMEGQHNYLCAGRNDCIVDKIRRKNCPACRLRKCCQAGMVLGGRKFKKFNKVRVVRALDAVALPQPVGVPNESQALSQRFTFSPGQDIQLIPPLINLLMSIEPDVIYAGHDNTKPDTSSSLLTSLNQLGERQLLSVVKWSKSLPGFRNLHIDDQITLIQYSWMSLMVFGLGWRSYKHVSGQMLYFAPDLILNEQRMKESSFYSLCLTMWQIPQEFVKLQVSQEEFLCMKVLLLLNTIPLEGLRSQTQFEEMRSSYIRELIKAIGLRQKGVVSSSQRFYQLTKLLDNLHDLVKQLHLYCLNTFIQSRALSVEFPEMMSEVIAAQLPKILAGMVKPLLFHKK

IC50 [1] | Efficacy [2] | Efficacy [3] | Ki [4] | Compound
250 nM | inactive | inactive | – | CC/C(C)=C1\Oc2ccc(F)cc2-c2ccc3c(c21)C(C)=CC(C)(C)N3
– | – | – | 2.5 nM | CC(C)=C/C=C1\Oc2ccc(F)cc2-c2ccc3c(c21)C(C)=CC(C)(C)N3
